Results taken from EP0364581A1, “METHOD OF STERILIZING PLANT POLLEN” (VSESOJUZNY NAUCHNO-ISSLEDOVATELSKY INST. SELSKOKHOZYAISTV. …, priority 1988, dated 1989).

What was measured:
Test in all cases: field test of gametocidal activity (sterilisation of anthers)
[1] = system: Winterweizens Sorte Polesskaya-70; assay type: in vivo, Winterweizen; conditions: V. Periode, 2%ige wäßrige Emulsion, 16 kg/ha; for Prozentsatz des Ansetzens bei freier Bestäubung: control = 100
From the text: (§1) Die gametozide Aktivität der erfindungsgemäßen Sterilisationsmittel war in Feldversuch in verschiedenen bodenklimatischen Zonen mit Teilstücken von 10 m^2 Größe in drei-- bis viermaliger Wiederholung nachgewiesen. Jedes Sterilisationsmittel wurde mindestens 5 Jahre lang geprüft.
(§2) Die Entwicklung der Perioden der Organogenese wird zytologisch überwacht. Die Behandlung von Pflanzen mit dem Sterilisationsmittel erfolgt am Anfang der fünften Periode der Organogenese nach Kupermann.
(§3) Mit dem Ahrenschieben verwirklicht man die Isolierung von Hauptähren und anderen Stockwerken in Pergamentbeuteln. Bei Weizen und Tritikale werden Einzelisolatoren verwendet. Bei Roggen schließt man je 1 Ähre von 5 bis 7 verschiedenen nebeneinander befindlichen Pflanzen in einen gemeinsamen Isolator ein. Bei Hirse wird jede Rispe getrennt isoliert. Der Sterilitätsprozentsatz (X) für Weizen, Roggen, Tritikale und Hirse wird nach der Formel [formula]
(§4) Samen von unbehandelten Kontrollpflanzen ermittelt.
(§5) Die Kornzahl in nicht isolierten Ähren von Kontrollpflanzen wird bedingt für 100% Ansetzen bei freier Bestäubung angenommen.
(§6) Um zuverlässige Angaben zu erhalten, verwendet man 20 bis 25 Isolatoren jeder Wiederholung für Weizen und Tritikale, 10 bis 15 Isolatoren jeder Wiederholung für Roggen und Hirse.
Pflanzen des Winterweizens Sorte Polesskaya-70 behandelt man in der V. Periode der Organogenese durch Zerstäubund einer 2%igen wäßrigen Emulsion von Phthalsäurediäthylester, Phthalsäurediallylester, Phthalsäuredihexylester, Kaliumsalz der 2-Methyl-3-zyklohexenkarbonsäure, Ammoniumsalz der 2-Methyl-3-zyklohexenkarbonsäure mit Hilfe einer Rückenspritze. Die Emulsion enthält 0,01 Masse% Tetrahydrofuran und 0,1 Masse% C12 -C14 -Kalziumalkylbenzolsulfonat.
Der Verbrauch an Präparat beträgt 16 kg/ha. Als Kontrolle dienen Pflanzen, behandelt mit dem Verdünner ohne Sterilisationsmittel.

[2] = system: Tritikale Sorte Amfidiploid 206; assay type: in vivo; conditions: V. Periode, 1%ige wäßrige Emulsion, 6 kg/ha; for Prozentsatz des Ansetzens bei freier Bestäubung: control = 100
From the text: as §1, §2, §3, §4, §5, §6
Pflanzen Tritikale Sorte Amfidiploid 206 werden in der V.Periode der Organogenese (nach Kupermann) mit einer l%igen wäßrigen Emulsion von Phthalsäuredipropylester, Phthalsäurediisobutylester, Kaliumsalz der 2-Methyl-3-zyklohexenkarbon- säure, 2-Methyl-3-zyklohexenkarbonsäuremethylester, Ammoniumsalz der 2-Methyl-3-zyklohexenkarbonsäure behandelt. Die Emulsion enthält 0,01 Masse% Tetrahydrofuran und 0,1 Masse% C12-C14-Kalziumalkylbenzolsulfonat. Der Verbrauch an Präparat beträgt 6 kg/ha. Als Kontrolle dienen Pflanzen, behandelt mit einem Verdünner ohne Sterilisationsmittel.

[3] = system: Winterweizens Sorte Kharkovskaya 81; assay type: in vivo, Winterweizen; conditions: V. und VI. Periode, 2%ige wäßrige Emulsion, 12 kg/ha; for Prozentsatz des Ansetzens der Körner bei freier Bestäubung: control = 100
From the text: as §1, §2, §3, §4, §5, §6
Pflanzen des Winterweizens Sorte Kharkovskaya 81 werden in der V. und VI. Periode der Organogenese (nach Kupermann) mit einer 2%igen wäßrigen Emulsion von Natriumsalz der 2-Methyl-3-zyklohexenkarbonsäure, Phthalsäuredihexylester, Ammoniumsalz der 2-Methyl-3-zyklohexenkarbon- säure, Phthalsäuredibutylester, Phthalsäurediallylester behandelt. Die Emulsion enthält 0,01 Masse% Dodezylsulfat und 0,1 Masse% C12-C14 -Kalziumalkylbenzolsulfonat. Der Verbrauch an Präparat beträgt 12 kg/ha.
Die Prüfergebnisse sind in der Tabelle 4 angeführt. Als Kontrolle dienten Pflanzen, behandelt ähnlich wie in Beispiel 1.

[4] = system: Winterweizens Sorte Priboi; assay type: in vivo, Winterweizen; conditions: V. und VI. Periode, 2%ige wäßrige Emulsion, 12 kg/ha; for Prozentsatz des Ansetzens der Körner bei freier Bestäubung: control = 100
From the text: as §1, §2, §3, §4, §5, §6
Pflanzen des Winterweizens Sorte Priboi werden in der V. und VI. Periode der Organogenese (nach Kupermann) mit einer 2%igen wäßrigen Emulsion von Kaliumsalz der 2-Methyl--3-zyklohexenkarbonsäure, 2-Methyl-3-zyklohexenkarbonsäure- methylester, Pnthalsäuredipropylester, Phthalsäurediisobutylester behandelt. Die Emulsion enthält 0,01 Masse% Dimethylsulfoxid und 0,1 Masse% C12-C14 -Kalziumalkylbenzolsulfonat. Der Verbrauch an Präparat beträgt 12 kg/ha. Als Kontrolle dienen Pflanzen, behandelt mit einem Verdünner ohne Sterilisationsmittel.

[5] = system: Hirse Sorte K-9693 Kormovoe I; assay type: in vivo; conditions: V. Periode, 1%ige wäßrige Emulsion, 8 kg/ha
From the text: as §1, §2, §3, §4, §5, §6
Pflanzen der Hirse Sorte K-9693 Kormovoe I werden in der V. Periode der Organogenese (nach Kupermann) mit einer 1%igen wäßrigen Emulsion von Ammoniumsalz der 2-Methyl-3-zyklo- nexenkarbonsäure, Phthalsäuredipropylester, Phthalsäuredibutylester, Phthalsäurediisobutylester, 2-Methyl-3-zyklo- hexenkarbonsäuremethylester, Phthalsäuredihexylester behandelt. Die Emulsion enthält 0,01 Masse% Dodezylsulfat und 0,1 Masse% C12-C14-Kalziumalkylbenzolsulfonat. Der Verbrauch an Präparat beträgt 8 kg/ha. Als Kontrolle dienen Pflanzen, behandelt mit einem Verdünner ohne Sterilisationsmittel. Die Prüfergebnisse sind in der Tabelle 18 angeführt. […] Periode der Organogenese erhalten.

For `C=CCOC(=O)c1ccccc1C(=O)OCC=C` [Beispiel 10, Phthalsäurediallylester], the “Kornzahl der Ähre bei freier Bestäubung” value [1] was 35,6, the “Kornzahl der Ähre im Isolator” value [1] was 6,2 and the “Prozentsatz der Sterilität” value [1] was 82,0%. The “Prozentsatz des Ansetzens bei freier Bestäubung” value [1] was 94,1%.
In the case of `CCOC(=O)c1ccccc1C(=O)OCC` [Beispiel 9, Phthalsäurediäthylester], the “Kornzahl der Ähre bei freier Bestäubung” value [1] is reported as 36,8, the “Kornzahl der Ähre im Isolator” value [1] is reported as 0,2 and the “Prozentsatz der Sterilität” value [1] is reported as 99,4%. For the same molecule, the “Prozentsatz des Ansetzens bei freier Bestäubung” value [1] was 97,4%.
For `CC(C)COC(=O)c1ccccc1C(=O)OCC(C)C` [Beispiel 44, Phthalsäurediisobutylester], the “Kornzahl der Ähre bei freier Bestäubung” value [2] was 32,5, the “Kornzahl der Ähre im Isolator” value [2] was 0,0 and the “Prozentsatz der Sterilität” value [2] was 100,0%. For the same molecule, the “Prozentsatz des Ansetzens bei freier Bestäubung” value [2] was 89,3%.
`CC1C=CCCC1C(=O)O` (centres unmarked) [Beispiel 47, Ammoniumsalz der 2-Methyl-3-zyklohexenkarbonsäure] was tested, and the “Kornzahl der Ähre bei freier Bestäubung” value [2] was 37,5, the “Kornzahl der Ähre im Isolator” value [2] was 6,8 and the “Prozentsatz der Sterilität” value [2] was 79,7%. The “Prozentsatz des Ansetzens bei freier Bestäubung” value [2] was 103,1%.
`CC1C=CCCC1C(=O)O.N` (centres unmarked) [Beispiel 20, Ammoniumsalz der 2-Methyl-3-zyklohexenkarbon-säure] was tested, and the “Kornzahl der Ähre bei freier Bestäubung” value [3] was 31,7, the “Kornzahl der Ähre im Isolator” value [3] was 0,0 and the “Prozentsatz der Sterilität” value [3] was 100,0%. The “Prozentsatz des Ansetzens der Körner bei freier Bestäubung” value [3] was 93,5%.
`CC(C)COC(=O)c1ccccc1C(=O)OCC(C)C` [Beispiel 17, Phthalsäurediisobutylester] was tested, and the “Kornzahl der Ähre bei freier Bestäubung” value [4] was 33,7, the “Kornzahl der Ähre im Isolator” value [4] was 0,0 and the “Prozentsatz der Sterilität” value [4] was 100,0%. For the same molecule, the “Prozentsatz des Ansetzens der Körner bei freier Bestäubung” value [4] was 91,6%.
With `COC(=O)C1CCC=CC1C` (centres unmarked) [Beispiel 46, 2-Methyl-3-zyklohexenkarbonsäuremethylester] the “Kornzahl der Ähre bei freier Bestäubung” value [2] was 32,6, the “Kornzahl der Ähre im Isolator” value [2] was 0,0 and the “Prozentsatz der Sterilität” value [2] was 100,0%. For the same molecule, the “Prozentsatz des Ansetzens bei freier Bestäubung” value [2] was 89,6%.
For `CCCCOC(=O)c1ccccc1C(=O)OCCCC` [Beispiel 21, Phthalsäuredibutylester], the “Kornzahl der Ähre bei freier Bestäubung” value [3] was 28,6, the “Kornzahl der Ähre im Isolator” value [3] was 0,0 and the “Prozentsatz der Sterilität” value [3] was 100,0%. The “Prozentsatz des Ansetzens der Körner bei freier Bestäubung” value [3] was 84,4%.
In the case of `CC1C=CCCC1C(=O)[O-].[K+]` (centres unmarked) [Beispiel 12, Kaliumsalz der 2-Methyl-3-zyklohexenkarbonsäure], the “Kornzahl der Ähre bei freier Bestäubung” value [1] is reported as 35,8, the “Kornzahl der Ähre im Isolator” value [1] is reported as 0,0 and the “Prozentsatz der Sterilität” value [1] is reported as 100,0%. The “Prozentsatz des Ansetzens bei freier Bestäubung” value [1] was 94,7%.
`CC1C=CCCC1C(=O)[O-].[K+]` (centres unmarked) [Beispiel 14, Kaliumsalz der 2-Methyl--3-zyklohexenkarbonsäure] was tested, and the “Kornzahl der Ähre bei freier Bestäubung” value [4] was 35,1, the “Kornzahl der Ähre im Isolator” value [4] was 0,0 and the “Prozentsatz der Sterilität” value [4] was 100,0%. The “Prozentsatz des Ansetzens der Körner bei freier Bestäubung” value [4] was 95,4%.
For `COC(=O)C1CCC=CC1C` (centres unmarked) [Beispiel 15, 2-Methyl-3-zyklohexenkarbonsäure-methylester], the “Kornzahl der Ähre bei freier Bestäubung” value [4] was 34,8, the “Kornzahl der Ähre im Isolator” value [4] was 0,0 and the “Prozentsatz der Sterilität” value [4] was 100,0%. The “Prozentsatz des Ansetzens der Körner bei freier Bestäubung” value [4] was 94,6%.
`CC1C=CCCC1C(=O)O` (centres unmarked) [Beispiel 45, Kaliumsalz der 2-Methyl-3-zyklohexenkarbon-säure] was tested, and the “Kornzahl der Ähre bei freier Bestäubung” value [2] was 31,8, the “Kornzahl der Ähre im Isolator” value [2] was 0,1 and the “Prozentsatz der Sterilität” value [2] was 99,7%. For the same molecule, the “Prozentsatz des Ansetzens bei freier Bestäubung” value [2] was 87,3%.
For `C=CCOC(=O)c1ccccc1C(=O)OCC=C` [Beispiel 22, Phthalsäurediallylester], the “Kornzahl der Ähre bei freier Bestäubung” value [3] was 30,6, the “Kornzahl der Ähre im Isolator” value [3] was 3,1 and the “Prozentsatz der Sterilität” value [3] was 90,3%. The “Prozentsatz des Ansetzens der Körner bei freier Bestäubung” value [3] was 90,3%.
With `CCCCCCOC(=O)c1ccccc1C(=O)OCCCCCC` [Beispiel 19, Phthalsäuredihexylester] the “Kornzahl der Ähre bei freier Bestäubung” value [3] was 30,8, the “Kornzahl der Ähre im Isolator” value [3] was 0,0 and the “Prozentsatz der Sterilität” value [3] was 100,0%. The “Prozentsatz des Ansetzens der Körner bei freier Bestäubung” value [3] was 90,8%.
With `CCCOC(=O)c1ccccc1C(=O)OCCC` [Beispiel 16, Pnthalsäuredipropylester] the “Kornzahl der Ähre bei freier Bestäubung” value [4] was 32,6, the “Kornzahl der Ähre im Isolator” value [4] was 5,6 and the “Prozentsatz der Sterilität” value [4] was 82,6%. For the same molecule, the “Prozentsatz des Ansetzens der Körner bei freier Bestäubung” value [4] was 88,6%.
`CC1C=CCCC1C(=O)[O-].[Na+]` (centres unmarked) [Beispiel 18, Natriumsalz der 2-Methyl-3-zyklohexenkarbonsäure] was tested, and the “Kornzahl der Ähre bei freier Bestäubung” value [3] was 32,6, the “Kornzahl der Ähre im Isolator” value [3] was 0,2 and the “Prozentsatz der Sterilität” value [3] was 99,4%. For the same molecule, the “Prozentsatz des Ansetzens der Körner bei freier Bestäubung” value [3] was 96,2%.
With `CCCCCCOC(=O)c1ccccc1C(=O)OCCCCCC` [Beispiel 11, Phthalsäuredihexylester] the “Kornzahl der Ähre bei freier Bestäubung” value [1] was 36,0, the “Kornzahl der Ähre im Isolator” value [1] was 0,1 and the “Prozentsatz der Sterilität” value [1] was 99,7%. The “Prozentsatz des Ansetzens bei freier Bestäubung” value [1] was 95,2%.
`CCCCCCOC(=O)c1ccccc1C(=O)OCCCCCC` [Beispiel 102, Phthalsäuredihexylester] was tested, and the “Kornzahl der Rispe bei freier Bestäubung” value [5] was 136,6, the “Kornzahl der Rispe im Isolator” value [5] was 0,0 and the “Prozentsatz der Sterilität” value [5] was 100,0%. For the same molecule, the “Prozentsatz des Ansetzens der Körner bei freier Bestäubung” value ([5]; control = 100) was 93,1%.
`CC1C=CCCC1C(=O)O.N` (centres unmarked) [Beispiel 13, Ammoniumsalz der 2-Methyl-3-zyklohexenkarbonsäure] was tested, and the “Kornzahl der Ähre bei freier Bestäubung” value [1] was 36,9, the “Kornzahl der Ähre im Isolator” value [1] was 3,7 and the “Prozentsatz der Sterilität” value [1] was 89,2%. For the same molecule, the “Prozentsatz des Ansetzens bei freier Bestäubung” value [1] was 97,6%.
With `CCCOC(=O)c1ccccc1C(=O)OCCC` [Beispiel 43, Phthalsäuredipropylester] the “Kornzahl der Ähre bei freier Bestäubung” value [2] was 31,8, the “Kornzahl der Ähre im Isolator” value [2] was 0,0 and the “Prozentsatz der Sterilität” value [2] was 100,0%. The “Prozentsatz des Ansetzens bei freier Bestäubung” value [2] was 87,3%.
